# Test results published in patent US12178224B1, “Use of gamma-quaternary ammonium butyrate compound in preparation of an animal feed additive” (ANIPHA TECHNOLOGIES PTY LTD, priority 2019, dated 2024).
# Legend:
# tilapia = settings: L-carnitine in basal diet, compared with the blank Control group; cited from earlier work
# broilers = assay: Effect on the production performance of broilers (breeding test); assay type: in vivo, Chinese three-yellow-feather broilers; settings: 600 ppm in basal diet, 20 days; for FCR (feed conversion ratio): ADFI/ADG
# Description: A single-factor random design was adopted for the test. 360 of one-day-old Chinese three-yellow-feather broilers with similar weights having an average weight of 50 g were randomly divided into 3 treatment groups, each group having 6 repetitions, half male and half female, and each repetition having 20 Chinese three-yellow-feather broilers. The henhouse and appliances were sterilized before testing. During the test, the cage rearing was carried out in the same henhouse under the same feeding and management condition. The basal diet is mainly a corn-soybean meal, and no additional antioxidant components or growth promoters were added during the entire feeding process. Each test group is a control group (Group I) and test groups II to III, respectively. Wherein, the control group was fed with the basal diet only, and the test groups II to III were fed with basal diets that were added with 600 ppm of different γ-quaternary ammonium butyrate compounds.
# The test period was 20 days in total. The test broilers were free to drink and eat, and were fed twice a day. With each repetition as a unit, the test broilers were weighed at the age of 21 days (stopping feeding for 12 hours, without stopping water) to count the consumption of the test broilers, calculate the average daily feed intake (ADFI, g/d*number of broilers), average daily gain (ADG, g/d*number of broilers) and feed conversion ratio (FCR) of each group of test broilers. The calculation formulas are as follows: Feed conversion ratio (FCR)=average daily feed intake/average daily gain.
# porkers = assay: Effect on the production performance of porkers (breeding test); assay type: in vivo; settings: 1000 ppm in basal diet, 28 days; for FCR (feed conversion ratio): ADFI/ADG
# Description: 90 head of “duroc×landrace×Large Yorkshire” three-way cross lean-type pigs with similar weights having an average weight of 80 kg were randomly divided into 3 treatment groups, each group having 3 repetitions, and each repetition having 10 pigs, half male and half female. The pigsty and appliances were sterilized before testing. During the test, the piglets were fed in separate pigpens under the same feeding and management condition in the same pigsty. During the test, the test pigs ate and drank freely, and were fed twice a day. Each test group is a control group (Group I) and test groups II to III, respectively. Wherein, the control group was fed with a basal diet only, and the test groups II to III were fed with diets that were supplemented with 1000 ppm of different γ-quaternary ammonium butyrate compounds on the basis of the basal diet, specifically as shown in Table 1.
# During the entire feeding process, no additional antioxidant components or growth promoters were added for each test group. The test period is 28 days, with each repetition as a unit, the pigs were weighed on the 28th day of the test after not stopping water but stopping feeding for 12 hours to calculate the average daily feed intake (ADFI, g/d*head), average daily gain (ADG, g/d*head) and feed conversion ratio (FCR) for each test group. The calculation formulas are as follows: Average daily feed intake=(total amount of feeds-remaining amount of feeds)/(test days×number of pigs per repetition); Average daily gain=(average weight at the end of the test-average weight at the beginning of the test)/test days; Feed conversion ratio=average daily feed intake/average daily gain.
Compound,weight gain rate reduced (tilapia) [%],ADFI (average daily feed intake) (broilers),ADG (average daily gain) (broilers),FCR (feed conversion ratio) (broilers),ADFI (average daily feed intake) (porkers) [g/d * head],ADG (average daily gain) (porkers) [g/d * head],FCR (feed conversion ratio) (porkers)
C[N+](C)(C)C[C@H](O)CC(=O)[O-] [L-carnitine],1.2,–,–,–,–,–,–
C[N+](C)(C)C[C@H](O)CC(=O)OCc1ccccc1 [benzyl L-carnitine chloride],–,32.18 g/d * number of broilers,13.46 g/d * number of broilers,2.39,2560,790,3.24
"CCOC(=O)C[C@@H](O)C[N+](C)(C)C [ethyl L-carnitine bromide, ethyl (R)-3-hydroxy-4-(trimethylammonium) butyrate bromide]",–,31.34 g/d * number of broilers,13.00 g/d * number of broilers,2.41,2624,788,3.33
